In patent publication US10150737B2, “Compounds for controlling arthropods” (priority 2013, dated 2018):

Columns and labels:
Musca domestica = Musca domestica test; type: in vivo; conditions: application rate 100 ppm; adult houseflies; after 2 days
In short: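 Water-diluted DMSO stock of compound, mixed onto a sugar-treated sponge, served as the sole exposure route for ten adult houseflies. Kill percentage scored at 2 days.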

Spodoptera frugiperda = Spodoptera frugiperda - spray test; type: in vivo; conditions: caterpillars on maize leaf discs, after 7 days
In short: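 Percent mortality of Spodoptera frugiperda caterpillars scored 7 days after placing them on dried maize leaf discs sprayed at the desired concentration. Spray formulation: compound dissolved in acetone/dimethylformamide, made up with water containing 1000 ppm emulsifier.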

Ctenocephalides felis [1] = experiment: Ctenocephalides felis - in vitro contact tests with adult cat fleas; type: in vivo; conditions: application rate 5 μg/cm2 (=500 g/ha); after 48 h; fleas dead or moribund
In short: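 Efficacy, as percentage of fleas dead or moribund, was scored at 48 h by knocking fleas to the tube base. Exposure was by contact with a dried acetone film of compound at 5 μg/cm^2 area dose; 5–10 adults per tube, room temperature, ambient humidity.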

Phaedon cochleariae = Phaedon cochleariae - spray test; type: in vivo; conditions: larvae on Chinese cabbage leaf discs, after 7 days
In short: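 Mortality of mustard beetle larvae was scored as % at day 7 on Brassica pekinensis leaf discs. Discs had been treated by spraying at the desired concentration, using an acetone/dimethylformamide solution diluted in water with 1000 ppm alkylaryl polyglycol ether, and dried before larvae were added.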

Tetranychus urticae = Tetranychus urticae - spray test, OP-resistant; type: in vivo; conditions: bean leaf discs, after 6 days
In short: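 Mortality (%) read on day 6 after spraying Phaseolus vulgaris leaf discs carrying all mite stages with formulations at the desired concentration. Formulation: active ingredient in acetone plus dimethylformamide, made up with emulsifier-containing water (1000 ppm alkylaryl polyglycol ether).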

Boophilus microplus = Boophilus microplus - injection test; type: in vivo; conditions: application rate 20 μg/animal; injection into engorged adult female ticks; after 7 days
In short: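 Five engorged adult female cattle ticks each received a 1 μl abdominal injection of compound solution in dimethyl sulphoxide. Fertile egg laying was assessed at 7 days, with doubtful eggs incubated about 42 days until hatch. 0% efficacy means all eggs fertile.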

[2] = logP determination by HPLC on a reversed-phase column (C18); type: physicochemical; conditions: for logP^a): HPLC-MS method a); for log P: HPLC-MS
[3] = tested on: Boophilus microplus Parkhurst strain, SP-resistant; experiment: Boophilus microplus - dip test; type: in vivo; conditions: application rate 100 ppm; dip of engorged adult female ticks; after 7 days
Procedure: Test animals: cattle ticks (Boophilus microplus) Parkhurst strain, SP-resistant
(§1) Solvent: dimethyl sulphoxide
10 mg of active ingredient are dissolved in 0.5 ml of dimethyl sulphoxide. For the purpose of producing a suitable formulation, the active ingredient solution is diluted with water to the concentration desired in each case.
This active ingredient formulation is pipetted into tubes. 8-10 adult engorged female cattle ticks (Boophilus microplus) are transferred into a further tube with holes. The tube is immersed into the active ingredient formulation, and all the ticks are completely wetted. After the liquid has run out, the ticks are transferred on filter discs into plastic dishes and stored in a climate-controlled room.
Efficacy is assessed after 7 days by laying of fertile eggs. Eggs which are not visibly fertile are stored in a climate-controlled cabinet until the larvae hatch after about 42 days. An efficacy of 100% means that none of the ticks has laid any fertile eggs; 0% means that all the eggs are fertile.

Lucilia cuprina = Lucilia cuprina test; type: in vivo; conditions: application rate 100 ppm; L1 larvae; after 2 days
In short: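 Mortality (%) of first-instar blowfly larvae, about 20 per vessel, recorded 2 days after exposure to compound-treated minced horsemeat. Compound dissolved in dimethyl sulphoxide, then water-diluted to the desired concentration.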

Amblyomma hebraeum = experiment: Amblyomma hebaraeum test (tick nymphs, immersion); type: in vivo; conditions: application rate 100 ppm; tick nymphs immersed one minute; after 42 days
Procedure: as §1
To produce an appropriate active ingredient formulation, 10 mg of active ingredient are mixed with 0.5 ml of dimethyl sulphoxide, and the concentrate is diluted with water to the desired concentration.
Tick nymphs (Amblyomma hebraeum) are placed into perforated plastic beakers and immersed in the desired concentration for one minute. The ticks are transferred on filter paper into a Petri dish and stored in a climate-controlled cabinet.
After 42 days, the kill in % is determined. 100% means that all of the ticks have been killed; 0% means that none of the ticks have been killed.

Ctenocephalides felis [4] = experiment: Ctenocephalides felis - oral test; type: in vivo; conditions: application rate 100 ppm in citrated cattle blood; after 2 days
In short: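 Roughly 20 unfed adult C. felis imbibe compound-dosed citrated cattle blood (DMSO formulation) across parafilm from a cylinder above their gauze chamber; percentage mortality recorded at day 2.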

Myzus persicae = Myzus persicae - spray test; type: in vivo; conditions: application rate 100 g/ha; Chinese cabbage leaf discs; after 6 days
In short: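 Mortality of the green peach aphid, as % killed, was read 6 days after spraying infested Brassica pekinensis leaf discs. Compound formulated in acetone/dimethylformamide and made up with emulsifier-containing (1000 ppm) water.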

[5] = reversed-phase column (C18), Table I-T3

| SMILES | efficacy (kill) (Musca domestica) | efficacy (Spodoptera frugiperda; application rate 100 g/ha) | efficacy (Ctenocephalides felis [1]) | efficacy (Phaedon cochleariae; application rate 100 g/ha) | efficacy (Tetranychus urticae; application rate 100 g/ha) | efficacy (laying of fertile eggs) (Boophilus microplus) | logP^a) [2] | logP^a) [2, 5] | efficacy (laying of fertile eggs) [3] | efficacy (kill) (Lucilia cuprina) | efficacy (kill) (Amblyomma hebraeum) | efficacy (kill) (Ctenocephalides felis [4]) | efficacy (Myzus persicae) | log P [2, 5] | efficacy (Spodoptera frugiperda; application rate 500 g/ha) | efficacy (Phaedon cochleariae; application rate 500 g/ha) | efficacy (Tetranychus urticae; application rate 500 g/ha) | logP^a) ([2]; reversed-phase column (C18)) |
| --- | --- | --- | --- | --- | --- | --- | --- | --- | --- | --- | --- | --- | --- | --- | --- | --- | --- | --- |
| N#CC1(NC(=O)c2cc(-c3cnn(-c4c(Cl)cc(C(F)(C(F)(F)F)C(F)(F)F)cc4C(F)(F)F)c3)ccc2Cl)CC1 [I-T3-57] | 100% | 100% | 100% | 100% | 100% | 100% | 4.3 | 4.3 | 100% | 100% | 100% | 100% | – | – | – | – | – | – |
| Cc1cc(C(F)(C(F)(F)F)C(F)(F)F)cc(Br)c1-n1cc(-c2ccc(Cl)c(C(=O)NC3CC3)c2)cn1 [I-T3-86] | 100% | 100% | 100% | 100% | 100% | 100% | 4.5 | 4.5 | 100% | 100% | 100% | 100% | – | – | – | – | – | – |
| N#CC1(NC(=O)c2cc(-c3cnn(-c4c(Cl)cc(C(F)(F)F)cc4Cl)c3)cnc2Cl)CC1 [I-T3-95] | – | 100% | 100% | 100% | 100% | 100% | 3.1 | – | 100% | – | 100% | 100% | 90% | 3.1 | – | – | – | – |
| CN(C(=O)c1cc(-c2cnn(-c3c(Cl)cc(C(F)(C(F)(F)F)C(F)(F)F)cc3Cl)c2)cnc1Cl)C1(C#N)CC1 [I-T3-102] | 100% | – | 100% | – | – | 100% | – | – | 100% | 100% | 90% | 100% | – | 4.3 | 100% | 100% | 90% | 4.3 |
| Cc1cc(C(F)(C(F)(F)F)C(F)(F)F)cc(C(F)(F)F)c1-n1cc(-c2cnc(Cl)c(C(=O)N(C)C3(C#N)CC3)c2)cn1 [I-T3-111] | 100% | – | 100% | – | 90% | 100% | – | – | 98% | 100% | 80% | 100% | – | 4.4 | 100% | 100% | – | 4.4 |
| Cc1ncc(-c2cnn(-c3c(Cl)cc(C(F)(C(F)(F)F)C(F)(F)F)cc3C(F)(F)F)c2)cc1C(=O)NC1(C#N)CC1 [I-T3-125] | 100% | 100% | 100% | – | 100% | 100% | – | – | 100% | 100% | 100% | 100% | 100% | 3.8 | – | – | – | 3.8 |
